Laboratory results taken from US11040963B2 (priority 2017, dated 2021).

Legend:
in vitro = conditions: dog, Cytotoxicity (pCC50) MDCK
[1] = molecular target: HA H1 A/California/07/09 (Influenza A virus (A/California/07/2009(H1N1)), UniProt C3W5X2); test: biochemical; conditions: Competition binding (AlphaLISA), pIC50 H1 A/California/07/09
[2] = molecular target: HA H1 A/New Caledonia/20/99 (Influenza A virus (A/New Caledonia/20/1999(H1N1)), UniProt Q6WG00); test: biochemical; conditions: Competition binding (AlphaLISA), pIC50 H1 A/New Caledonia/20/99
[3] = tested on: H1N1 A/New Caledonia/20/99; test: microbe, parasite or virus in culture; format: cell-based, influenza A virus; conditions: Influenza A virus, H1N1, MDCK, 96 h, read-out: Virus neutralization assay (VNA), pEC50 H1N1 A/New Caledonia/20/99 (converted)
H1N1 A/California/07/09 = test: microbe, parasite or virus in culture; format: cell-based, influenza A virus; conditions: Influenza A virus, H1N1, MDCK, 96 h, read-out: Virus neutralization assay (VNA), pEC50 H1N1 A/California/07/09 (converted)
[4] = molecular target: HA H5 A/Vietnam/1203/04 (Influenza A virus (A/Vietnam/1203/2004(H5N1)), UniProt Q5EP31); test: biochemical; conditions: Competition binding (AlphaLISA), pIC50 H5 A/Vietnam/1203/04
H5N1 A/Vietnam/1203/04 = test: microbe, parasite or virus in culture; format: cell-based, influenza A virus; conditions: Influenza A virus, H5N1, MDCK, 96 h, read-out: Virus neutralization assay (VNA), pEC50 H5N1 A/Vietnam/1203/04, MDCK cells, 96 h, CPE by ATPlite (converted); average of repeats

| Compound | CC50 (in vitro) [nM] | IC50 [1] [nM] | IC50 [2] [nM] | EC50 [3] [nM] | EC50 (H1N1 A/California/07/09) [nM] | IC50 [4] [nM] | EC50 (H5N1 A/Vietnam/1203/04) [nM] |
| --- | --- | --- | --- | --- | --- | --- | --- |
| COc1ccc2oc(-c3ccnc(C(=O)N4CCN(C(c5ccccc5)c5nnc(C)o5)CC4)c3)nc2c1 (stereo not shown) [Example 25] | 25100 | 15.8 | 25.1 | 79.4 | 63.1 | 794 | 3980 |
| CC(=O)Nc1ccc2oc(-c3ccnc(C(=O)N4CCN([C@H](c5ccccc5)c5nnc(C)o5)CC4)c3)nc2c1 [Example 15] | > 50100 | 3.16 | 6.31 | 39.8 | 158 | 158 | 7940 |
| Cc1nnc([C@@H](c2ccccc2)N2CCN(C(=O)c3cccc(-c4cnc5ccccc5c4)c3)CC2)o1 [Example 76] | 15800 | 200 | 158 | 631 | 1260 | 10000 | 31600 |
| COC(=O)C(c1ccccc1)N1CCN(C(=O)c2cc(-c3nc4cc(C(F)(F)F)ccc4o3)ccn2)CC1 (stereo not shown) [Example 16] |  | 15.8 | 15.8 | 79.4 | 79.4 | 398 | 3160 |
| COC(=O)[C@@H](c1ccccc1)N1CCN(C(=O)c2cccc(-c3nc4cc(C(F)(F)F)ccc4o3)c2)[C@H](C)C1 [Example 37] | > 50100 | 63.1 | 50.1 | 251 | 251 | 1580 | 31600 |
| Cc1nnc([C@@H](c2ccccc2)N2CCN(C(=O)c3cc(-c4nc5cc(OC(F)(F)F)ccc5o4)ccn3)CC2)o1 [Example 12] | 15800 | 6.31 | 7.94 | 39.8 | 39.8 | 158 | 1260 |
| COC(=O)[C@@H](c1ccccc1)N1CCN(C(=O)c2cccc(-c3nc4cc(C(F)(F)F)ccc4o3)c2)[C@H](C(N)=O)C1 [Example 113] | > 50100 | 501 | 631 | 1580 | 1260 | 25100 | > 50100 |
| Cc1nnc(C(c2ccccc2)N2CCN(C(=O)c3cccc(-c4nc5cc(N(C)C)ccc5o4)c3)CC2)o1 (stereo not shown) [Example 35] | 25100 | 15.8 | 15.8 | 158 | 200 | 631 | 6310 |
| CNC(=O)C(c1ccccc1)N1CCN(C(=O)c2cccc(-c3nc4ccc(OC)cc4s3)c2)CC1 (stereo not shown) [Example 103] | 31600 | 200 | 126 | 1000 | 2510 | 1000 | 15800 |
| COC(=O)C(c1ccccc1)N1CCN(C(=O)c2cc(-c3nc4ccc(OC)cc4s3)ccn2)CC1 (stereo not shown) [Example 14] | 15800 | 20 | 10 | 63.1 | 126 | 126 | 1000 |
| Cc1nnc([C@@H](c2ccccc2)N2CCN(C(=O)[C@H]3CCCN(c4nc5cc(C(F)(F)F)ccc5o4)C3)CC2)o1 [Example 96] |  | 200 | 316 | 1000 | 794 | 15800 | 50100 |
| Cc1nnc(C(c2ccccc2)N2CCN(C(=O)c3cccc(-c4nc5cc(C(F)(F)F)ccc5o4)c3)CC2)o1 (stereo not shown) [Example 86] | 31600 | 79.4 | 126 | 794 | 631 | 3160 | 31600 |
| Cc1nc([C@@H](c2ccccc2)N2CCN(C(=O)c3cc(-c4nc5cc(OC(F)(F)F)ccc5o4)ccn3)CC2)n[nH]1 [Example 134] | > 50100 | 39.8 | 15.8 | 251 | 631 | 158 | 3980 |
| COC(=O)C(c1ccccc1)N1CCN(C(=O)c2cccc(-c3nc4cc(N(C)C)ccc4o3)c2)CC1 (stereo not shown) [Example 11] | 3980 | 7.94 | 6.31 | 50.1 | 79.4 | 316 | 1260 |
| CC(=O)Nc1ccc2oc(-c3ccnc(C(=O)N4CCN([C@H](c5ccccc5)c5n[nH]c(C)n5)CC4)c3)nc2c1 [Example 2] | > 50100 | 7.94 | 5.01 | 2.51 | 10 | 158 | 1000 |
| COC(=O)C(c1ccccc1)N1CCN(C(=O)c2cccc(-c3nc4cc(N)ccc4o3)c2)CC1 (stereo not shown) [Example 10] | 25100 | 25.1 | 15.8 | 50.1 | 79.4 | 794 | 2510 |

| Compound | CC50 (in vitro) [nM] | IC50 [1] [nM] | IC50 [2] [nM] | EC50 [3] [nM] | EC50 (H1N1 A/California/07/09) [nM] | IC50 [4] [nM] | EC50 (H5N1 A/Vietnam/1203/04) [nM] |
| --- | --- | --- | --- | --- | --- | --- | --- |
| COc1ccc2nc(-c3cccc(C(=O)N4CCN(C(c5ccccc5)c5ncco5)CC4)c3)sc2c1 (stereo not shown) [Example 74] | > 50100 | 200 | 79.4 | 631 | 1000 | 2000 | 6310 |
| Cc1nnc(C(c2ccccc2)N2CCN(C(=O)c3cc(-c4nc5cc(OC(F)(F)F)ccc5o4)ccn3)CC2)s1 (stereo not shown) [Example 49] | 15800 | 251 | 200 | 316 | 501 | 3980 | 31600 |
| COc1ccc2nc(-c3cccc(C(=O)N4CCN(C(C(N)=O)c5ccccc5)CC4)c3)sc2c1 (stereo not shown) [Example 84] | > 50100 | 316 | 200 | 631 | 2510 | 1580 | 31600 |
| Cc1nnc([C@@H](c2ccccc2)N2CCN(C(=O)c3cccc(-c4cc5ccccc5cn4)c3)CC2)o1 [Example 95] | 39800 | 126 | 158 | 1000 | 794 | 5010 | 31600 |
| COc1ccc2nc(-c3cccc(C(=O)N4CCN([C@H](c5ccccc5)c5nnn(C)n5)CC4)c3)sc2c1 [Example 61] | 39800 | 79.4 | 63.1 | 501 | 631 | 501 | 2000 |
| COC(=O)C(c1cccnc1)N1CCN(C(=O)c2cccc(-c3nc4ccc(OC)cc4s3)c2)CC1 (stereo not shown) [Example 68] | 10000 | 200 | 100 | 501 | 2000 | 1260 | 20000 |
| Cc1nnc([C@@H](c2ccccc2)N2CCN(C(=O)c3cccc(-c4nc5c(C)cccc5o4)c3)CC2)o1 [Example 32] | 15800 | 63.1 | 79.4 | 158 | 316 | 3980 | 25100 |
| COC(=O)C(c1ccccc1)N1C[C@H]2CC[C@@H](C1)N2C(=O)c1cccc(-c2nc3ccc(OC)cc3s2)c1 (stereo partly shown) [Example 88] | > 50100 | 200 | 126 | 794 | 1000 | 501 | 12600 |
| Cn1ccc(C(c2ccccc2)N2CCN(C(=O)c3cccc(-c4nc5cc(C(F)(F)F)ccc5o4)c3)CC2)n1 (stereo not shown) [Example 53] | > 50100 | 5010 | 3980 | 398 | 1000 | 20000 | > 50100 |
| COC(=O)C(c1ccccc1)N1CCN(C(=O)c2cccc(-c3nc4cc(OC)ccc4o3)c2)CC1 (stereo not shown) [Example 13] | 50100 | 7.94 | 6.31 | 50.1 | 79.4 | 501 | 3160 |
| COc1ccc2oc(-c3cccc(C(=O)N4CCN(C(c5ccccc5)c5nnc(C)o5)CC4)c3)nc2c1 (stereo not shown) [Example 36] | 20000 | 25.1 | 25.1 | 126 | 158 | 1000 | 7940 |
| Cc1nnc(C(c2ccccc2)N2CCN(C(=O)c3cc(-c4nc5ccccc5s4)ccc3F)CC2)o1 (stereo not shown) [Example 48] |  | 251 | 200 | 316 | 631 | 12600 | > 50100 |
| Cc1nnc(C(c2ccccc2)N2CCN(C(=O)c3cc(-c4nc5ccccc5o4)ccc3F)CC2)o1 (stereo not shown) [Example 52] |  | 200 | 200 | 398 | 631 | 20000 | > 50100 |
| Cc1nnc(C(c2ccccc2)N2CCN(C(=O)c3ccnc(-c4nc5cc(C(F)(F)F)ccc5o4)c3)CC2)o1 (stereo not shown) [Example 101] |  | 631 | 794 | 1000 | 2000 | 39800 | > 50100 |
| Cc1nnc(C(c2ccccc2)N2CCN(C(=O)[C@H]3CCCN(c4nc5cc(C(F)(F)F)ccc5o4)C3)CC2)o1 (stereo partly shown) [Example 110] |  | 398 | 794 | 1260 | 1260 | 50100 | > 50100 |
